Molecules are shown by their SMILES.

With `C=CCOC1=NC(OCC)=NS(=O)(=O)N1C`, the melting point (in general, the temperature, or range, at which the solid turns liquid) lay in the range of 56 to 60 °C. `COc1cccc2c(Nc3ccccc3C)nccc12` displayed a melting point of 111 to 112 °C.

On to `CC(C)(C)[Si](C)(C)Oc1ccc(NC(=O)CCCl)cc1`, for which the melting point was 126 °C. Next, `OC(=S)c1c(F)cccc1-c1ccccc1`: 152 to 156 °C; `[N-]=[N+]=NCCc1cccc2[nH]cc(S(=O)(=O)c3ccccc3)c12`: 143 °C.

On to `COc1ccc(S(=O)(=O)C2(C(=O)O)CCN(CCCOc3ccccc3)CC2)cc1`, for which the melting point was 101 °C. Next, `COc1ccc(OC)c(Cc2ccc3[nH]c(=S)[nH]c3c2)c1`: 210 to 211 °C; `CCc1ccc2nc(C)c(S(=O)(=O)NC(=O)Nc3nc(OC)cc(OC)n3)n2n1`: 172 to 174 °C; `CN(C)C(=O)c1cn(Cc2ccccc2)c(=O)c2c1c1cc(F)ccc1n2C`: 192 to 193 °C. For the compound `CC(=C1SC(=O)NC1=O)c1ccc(S(=O)(=O)CCc2ccccc2)cc1`, the melting point was 201 to 202 °C. Turning to `Cc1ccc2nc(C(=O)Nc3ccccn3)[nH]c2c1`, the melting point is 230 °C. The figure for `CC(C)(C)NC(CCOc1cccc2c1CC(=O)N2)OC(=O)Cc1ccccc1` (stereo unspecified) is 112 to 115 °C; for `CCOC(=O)CNC(=O)CC(O)CCl` (stereo unspecified) it is 53 to 54 °C. Regarding `COc1ccc2c(c1)CCC1C2C(O)CC2(C)C1CC1OCCOC12` (stereo unspecified), the melting point lay in the range of 125 to 126 °C. `C[C@@H](N1CC(=O)N(c2ccc(F)cc2F)C1=O)[C@@]1(c2ccc(F)cc2F)CO1` came in with a melting point of 124 to 125 °C. The compound `CCCS(=O)(=O)c1ccc(NS(=O)(=O)c2cccs2)c2[nH]c(C3=NCCS3)cc12` yielded a melting point of 101 to 102 °C. Compound `CC(=O)N1CCc2cc(-c3ccc4c(c3)CC[C@H]3N(C)C(=O)CC[C@]43C)ccc21` showed a melting point of 197 to 200 °C.

The compound `Cc1ccc(NCC2CCN(C(C)C)CC2)c(C(=O)Nc2ccc(Cl)cn2)c1` yielded a melting point of 172 to 174 °C.

For the compound `Cc1nc2c(N)c(C(=O)C3OC3c3ccsc3)ccn2c1C` (stereo unspecified), the melting point lay in the range of 186 to 189 °C. `Cn1cc(C(=O)NCc2ccc(Cl)cc2)c(=O)c2cc(C(C)(C)CCO)ccc21` had a melting point of 135 to 138 °C. Next, `O=C1O[C@@H](Cn2ccnn2)CN1c1ccc(-c2ccc(C3=NOC(C4(O)CCCC4)C3)nc2)c(F)c1` (stereo partly specified): 225 °C; `COc1ccc2[nH]c(=O)[nH]c2c1`: 249 to 251 °C. For `CSc1nc2nsc(N)c2s1`, the melting point lay within 160 to 166 °C. Take `CS(C)=Nc1nccnc1Cl`: the melting point was in the range of 106 to 108 °C. For the compound `C=CCn1nc(C(=O)NC)cc1OCCCN1CCN(c2cccc3sccc23)CC1`, the melting point was in the range of 138 to 140 °C. With `O=C(Nc1cc2cn[nH]c2cc1Cl)c1ccccc1NCc1ccncc1`, the melting point was 223 °C. With `NC(=O)c1c(Cl)c(-c2ccccc2)n2c1CN(S(=O)(=O)Nc1ccc(F)cc1)CC2`, the melting point fell in the range of 183 to 185 °C.

In the case of `COc1cc(CNc2n[nH]c3ncnc(Nc4cccc(Cl)c4)c23)ccc1O`, the melting point is 223 to 225 °C. On to `N#CSCC(=O)c1ccccc1`, for which the melting point was 75 to 77 °C. `CC(C(=O)NCC(=O)O)C(SC(=O)c1ccccc1)SC(=O)c1ccccc1` (stereo unspecified) came in with a melting point of 113 to 114 °C. Next, `COc1ccc(CC(=NNS(=O)(=O)c2ccc(C)cc2)c2cc(OC)cc(OC)c2)cc1`: 120 to 121 °C; `CC1(C)[C@@H](CN2CC[C@@H](O)C2)CC[C@@]1(C)NCC(=O)N1C[C@@H](F)C[C@H]1C#N`: 130 to 135 °C. Consider `COC(=O)c1c(C)n(-c2ccccc2)c(C)c(C(=O)OC)c1=O`, for which the melting point worked out at 215 °C.

In turn, `CC1=CC(c2cccs2)(C(C)C(=O)O)Nc2ccccc21` (stereo unspecified) came in with a melting point of 228 to 229 °C. In the case of `O=C(c1cccs1)c1cnn2c(-c3cccc([N+](=O)[O-])c3)ccnc12`, the melting point fell in the range of 199 to 201 °C. Next, `CN(C)CC(=O)Nc1ccc(Cl)c(C(=O)Nc2cccc3c4c(oc23)CCCC4)c1Cl`: 207 °C. Turning to `Cc1sc2c(c1C)C(=O)NS2(=O)=O`, the melting point is 187 °C.

On to `CCNC(=S)N1CCc2[nH]cnc2C1`, for which the melting point came to 185 °C. `COC(=O)c1ccccc1S(=O)(=O)NC(=O)Nc1nc(OC)n(C)n1`: the melting point lay in the range of 177 to 180 °C. `CNC(=O)[C@@H]1C[C@H](SCc2ccc(OC)cc2)CN1C` gave a melting point of 82 to 84 °C. In turn, `CCOC(=O)c1cc(-c2ccc(OC)cc2)nn(Cc2ccc(Cl)cc2Cl)c1=O` displayed a melting point of 136 °C. Take `CCCCCc1cc2c(nc(O)n2CC2CCN(S(=O)(=O)CC)CC2)c(N)n1`: the melting point is 222 to 225 °C.

Compound `Nc1nc(N)c(-c2ccc(Cl)cc2Cl)c(COCc2ccccc2)n1` showed a melting point of 171 to 172 °C. The figure for `N#Cc1c(N2CCN(C(=O)c3cccs3)CC2)c2sccc2n(Cc2ccc(F)cc2)c1=O` is 286 °C; for `COC(=O)C(CC(=O)c1ccccc1)SC(C)=O` (stereo unspecified) it is 53.5 to 54 °C. Regarding `NC(=O)N(O)Cc1ccco1`, the melting point was in the range of 128 to 131 °C. `CN1Cc2c(I)ncn2-c2ccc(F)c(Cl)c2C1=O` showed a melting point of 218 to 219 °C. `CC1CCNC(C)C1(C)CCCO` (stereo unspecified) returned a melting point of 89 to 91 °C. The figure for `Cc1cc(CO)cc(C)c1O` is 102 to 104 °C; for `Cc1cccc(C2=CCN(CCCn3c(=O)[nH]c4cccc(C)c4c3=O)CC2)n1` it is 200 to 203 °C; for `N#Cc1ccc2oc(C(=O)CBr)cc2c1` it is 156 to 158 °C. In turn, `S=[PH](c1ccccc1)c1ccccc1` gave a melting point of 134 to 135 °C.

Consider `CCOC(=O)c1ccc(C(Cc2ccncc2)c2ccc(OC)c(OC3CCCC3)c2)cc1` (stereo unspecified), for which the melting point was 170 to 173 °C.

Take `N#CCn1cc(-c2ccccc2)c(=O)c(-c2ccccc2)c1`: the melting point is 221 to 224 °C.

`Cc1noc(NS(=O)(=O)c2ccccc2-c2ccc(C(F)(F)C(C)C)cc2)c1C`: the melting point is 52 to 58 °C.

As for `CCC1CN(c2c(F)cc3c(=O)c(C(=O)O)cn(C4CC4F)c3c2OC)CC1(C)N` (stereo unspecified), the melting point is 113 to 115 °C. Compound `CC(=O)Nc1ccc(C(C)(C)C(=O)O)cc1` showed a melting point of 170 to 171 °C. For `O=C(O)CSc1c(C(=O)O)[nH]c2cc(Cl)cc(Cl)c12`, the melting point lay within 152 to 153 °C.

`O=C(O)CCCCC1Cc2ccc(F)cc2C1=O` (stereo unspecified) registered a melting point of 122 to 123 °C. Compound `COCCN(C)Cc1ccc(NC(=O)C2=Cc3cc(-c4ccc(C)cc4)ccc3OCC2)cc1` displayed a melting point of 121 to 122 °C.

For the compound `Cc1cc(O)ccc1-c1c(C=O)sc(-c2ccc(O)c(F)c2)c1C`, the melting point was in the range of 227 to 230 °C. As to `COc1ccc(CC(=O)Cc2ccc(OC)cc2)cc1`, the melting point lay within 75 to 76 °C.

`Cc1ccc(NC(=O)c2ccc3ncccc3c2)cc1NC(=O)c1ccc(OCc2ccccc2)cc1`: the melting point was 227 to 228 °C. `CCCc1nc(N)nc(N)c1N1CCN(c2ccc(C(=O)OCC)cc2)CC1` came in with a melting point of 215 to 216 °C.

`Cn1nc(-c2ccccc2Cl)nc1-c1ccc(Oc2ccc(C(F)(F)F)cn2)cc1Cl` came in with a melting point of 104 to 108 °C. Next, `CC1CCN(C(=O)c2ccc3nonc3c2)CC1`: 86 to 87 °C.

(Values after a melting point compilation (Tetko et al.; mined from patent text by program, amines drawn as free bases though some values may be those of a salt).)
